From patent US7432376B2, “Tropane prodrugs with central nervous system activity” (Research Foundation of State University of New York, The, priority 2006, dated 2008) come the findings set out here.

Like-named read-outs stand apart in the source and are kept apart here. Where only a bound is given, the exact number is not on record here.

Test [1] addresses T1, dopamine transport sites (DAT) (Rattus norvegicus, UniProt P23977).
T1 construct: tissue Pel-Freez, Rogers, Ark; host or cells: rat striatum membranes
Nature of the test: Displacement of [125I]RTI-55 binding at dopamine transport sites in membranes from rat striatum. The arrangement: species or system Sprague-Dawley rat. How it is done: (§1) Binding of at biogenic amine transporters was determined using striatum and frontal cortex dissected from frozen Sprague-Dawley rat brains (Pel-Freez, Rogers, Ark.). […] Affinities of analogs at 5-HT transport sites were determined by displacement of [^3H]paroxetine binding in membranes from rat frontal cortex, using 50 mg (original wet weight) of membranes and 0.4 nM [^3H]paroxetine. Non-specific binding was determined in the presence of 10 μM fluoxetine. Binding of analogs at norepinephrine transport sites was determined by displacement of [^3H]nisoxetine binding in membranes from rat forebrain, using 0.7 nM [^3H]nisoxetine. Non-specific binding was determined in the presence of 1 μM desipramine.
(§2) Potencies were calculated from displacement curves using 7-10 concentrations of unlabeled analogs, as analyzed by non-linear curve fitting. […] For [^3H]paroxetine and [^3H]nisoxetine binding assays, Ki values were calculated using the Cheng-Prusoff equation.^1 All data are mean values±S.E.M. of at least three separate experiments, each of which was conducted in triplicate.

Test [2] addresses T2, 5-HT transport sites (SERT) (Rattus norvegicus, UniProt P31652).
T2 construct: tissue Pel-Freez, Rogers, Ark; host or cells: rat frontal cortex membranes
Nature of the test: Displacement of [3H]paroxetine binding at 5-HT transport sites in membranes from rat frontal cortex. Also noted: species or system Sprague-Dawley rat. As for the experimental part: as §1, §2
(In general: In a radioligand displacement assay an active substance lowers the binding of a labelled ligand.)

T1 sequence (P23977 whole entry): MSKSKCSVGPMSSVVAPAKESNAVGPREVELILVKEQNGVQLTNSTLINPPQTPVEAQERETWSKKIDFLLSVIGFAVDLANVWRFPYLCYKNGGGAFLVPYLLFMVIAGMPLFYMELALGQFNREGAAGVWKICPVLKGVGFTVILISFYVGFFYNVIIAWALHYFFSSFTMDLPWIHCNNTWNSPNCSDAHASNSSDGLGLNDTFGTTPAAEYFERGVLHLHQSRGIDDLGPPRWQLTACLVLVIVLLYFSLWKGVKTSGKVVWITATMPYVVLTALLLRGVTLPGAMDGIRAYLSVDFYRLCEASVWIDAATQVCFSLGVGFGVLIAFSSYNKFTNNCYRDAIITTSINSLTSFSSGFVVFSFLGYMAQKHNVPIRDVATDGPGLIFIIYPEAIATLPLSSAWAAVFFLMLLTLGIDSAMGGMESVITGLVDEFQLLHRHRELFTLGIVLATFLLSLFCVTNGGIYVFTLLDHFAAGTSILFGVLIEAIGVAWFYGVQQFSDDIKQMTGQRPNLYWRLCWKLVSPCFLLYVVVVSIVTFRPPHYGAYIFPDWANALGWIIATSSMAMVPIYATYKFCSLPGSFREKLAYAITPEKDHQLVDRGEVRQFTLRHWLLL
T2 sequence (P31652 whole entry): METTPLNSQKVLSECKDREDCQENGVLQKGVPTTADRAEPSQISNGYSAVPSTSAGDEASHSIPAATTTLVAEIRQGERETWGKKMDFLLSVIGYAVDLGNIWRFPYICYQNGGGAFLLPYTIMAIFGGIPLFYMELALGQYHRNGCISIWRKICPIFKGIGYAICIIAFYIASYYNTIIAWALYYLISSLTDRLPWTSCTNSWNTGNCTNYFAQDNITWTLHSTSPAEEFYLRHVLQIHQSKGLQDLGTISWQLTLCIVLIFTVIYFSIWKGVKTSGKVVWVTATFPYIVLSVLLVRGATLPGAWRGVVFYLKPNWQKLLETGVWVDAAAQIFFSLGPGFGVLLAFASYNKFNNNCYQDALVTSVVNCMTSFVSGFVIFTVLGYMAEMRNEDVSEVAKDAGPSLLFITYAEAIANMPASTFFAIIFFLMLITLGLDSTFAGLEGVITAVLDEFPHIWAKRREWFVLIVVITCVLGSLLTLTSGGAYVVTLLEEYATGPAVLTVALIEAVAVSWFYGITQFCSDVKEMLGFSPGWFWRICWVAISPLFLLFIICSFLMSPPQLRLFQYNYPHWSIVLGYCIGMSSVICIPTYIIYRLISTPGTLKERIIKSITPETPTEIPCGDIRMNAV

As to `CCC(O)C1C(c2ccc(C)cc2)CC2CCC1N2C` (stereo not drawn) [Compound 41a], the half-inhibitory concentration (IC50) – broadly, the concentration that gives 50% inhibition – in test [1] is 3.69 nM. Also, the Ki (usually a dissociation constant, usually derived from enzyme kinetics or from competition with a known ligand) in test [2] came out at 161 nM.

Compound `CCC(O)C1C(c2ccc3ccccc3c2)CC2CCC1N2C` (stereo not drawn) [Compound 41b] had an IC50 in test [1] of 6.22 nM. The compound also displayed an inhibition constant Ki in test [2] of 588 nM.

Compound `CCC(OC(C)=O)C1C(c2ccc(C)cc2)CC2CCC1N2C` (stereo not drawn) [Compound 42a] gave an IC50 in test [1] of 87.9 nM. Also, in test [2], the Ki was more than 10000 nM.

As for `CCC(OC(C)=O)C1C(c2ccc3ccccc3c2)CC2CCC1N2C` (stereo not drawn) [Compound 42b], the IC50 in test [1] stood at 1.72 nM. For the same compound, the affinity in test [2] corresponds to a Ki of 1.06 nM.

In the case of `CCCCCCCCCCCC(=O)OC(CC)C1C(c2ccc(C)cc2)CC2CCC1N2C` (stereo not drawn) [Compound 43a], in test [1] (rat striatum membranes, 10 pM [125I]RTI-55, mean of at least three experiments, read-out: IC50 DA), the IC50 was 0.891 nM. Besides, in test [2] (rat frontal cortex membranes, 0.4 nM [3H]paroxetine, Ki by Cheng-Prusoff, mean of at least three experiments, read-out: Ki SERT), the Ki was found to be 1.91 nM.

`CCCCCCCCCCCC(=O)OC(CC)C1C(c2ccc3ccccc3c2)CC2CCC1N2C` (stereo not drawn) [Compound 43b]: the IC50 in test [1] was determined as 109 nM. Further, the affinity in test [2] corresponds to a Ki of 90.8 nM.
